Experimental findings from ChEMBL document CHEMBL4118261, “Synthesis, iron binding and antimicrobial properties of hexadentate 3-hydroxypyridinones-terminated dendrimers” (2018) are described below.

The source made the active and inactive calls. No cut-off for these calls is given here.

Experiment [1] in a line: Binding affinity to Fe3+ at 1:6 compound to ferric ion molar ratio measured after 4 hrs at pH 8.2 to 8.4 measured at 460 nm by UV/Vis spectrophotometry.
A short description of experiment [2]: Iron chelating activity assessed as pFe3+ by measuring fluorescence intensity of the iron-CP691 complex at 1 uM after 1 month incubation in absence of light using CP691 as fluorescent probe by fluorescence assay relative to CP691 alone.
Experiment [3] deals with Escherichia coli. Nature of the experiment: Antibacterial activity against Escherichia coli CGMCC 1.0907 assessed as growth inhibition at 100 ug/ml after 24 hrs. The settings on record: for inhibition of growth at 100 µg/mL: CGMCC 1.0907, 24 h, read-out: GI. Format: functional.
In experiment [4] the test system is Pseudomonas aeruginosa. The experiment is described as follows: Antibacterial activity against Pseudomonas aeruginosa CGMCC 1.2342 assessed as growth inhibition at 100 ug/ml after 24 hrs. Format: functional. The settings on record: for inhibition of growth at 100 µg/mL: CGMCC 1.2342, 24 h, read-out: GI.
Experiment [5] deals with Staphylococcus aureus. Nature of the experiment: Antibacterial activity against Staphylococcus aureus CGMCC 1.0089 assessed as growth inhibition at 100 ug/ml after 24 hrs. Format: functional. The settings on record: for inhibition of growth at 100 µg/mL: CGMCC 1.0089, 24 h, read-out: GI.
Experiment [6] deals with Bacillus subtilis. The experiment is described as follows: Antibacterial activity against Bacillus subtilis CGMCC 1.0108 assessed as growth inhibition at 100 ug/ml after 24 hrs. The experiment is classed as functional. The settings on record: for inhibition of growth at 100 µg/mL: CGMCC 1.0108, 24 h, read-out: GI.
Experiment [7] can be described thus: Binding affinity to Fe3+ at 1:6 compound to ferric ion molar ratio by HR-ESI MS analysis.
A short description of experiment [8]: Binding affinity to Fe3+ at 1:9 compound to ferric ion molar ratio measured after 4 hrs at pH 8.2 to 8.4 measured at 460 nm by UV/Vis spectrophotometry.
Experiment [9] is described as follows: Iron chelating activity assessed as pFe3+ by measuring fluorescence intensity of the iron-CP691 complex at 0.67 uM after 1 month incubation in absence of light using CP691 as fluorescent probe by fluorescence assay relative to CP691 alone.
Experiment [10] can be described thus: Binding affinity to Fe3+ at 1:9 compound to ferric ion molar ratio by HR-ESI MS analysis.
The nature of experiment [11]: Binding affinity to Fe3+ at 1:3 compound to ferric ion molar ratio measured after 4 hrs at pH 8.2 to 8.4 measured at 460 nm by UV/Vis spectrophotometry.
Experiment [12] can be described thus: Metal chelating activity assessed as formation of [Fe3L+H+Na]2+-compound complex at 1:3 compound to ferric ion molar ratio by HR-ESI MS analysis.
Experiment [13] is described as follows: Metal chelating activity assessed as formation of [Fe3L+H+2Na]3+-compound complex at 1:3 compound to ferric ion molar ratio by HR-ESI MS analysis.
Experiment [14] is described as follows: Binding affinity to Fe3+ at 1:2 compound to ferric ion molar ratio by HR-ESI MS analysis.
Experiment [15] is described as follows: Binding affinity to Fe3+ at 1:1 compound to ferric ion molar ratio by HR-ESI MS analysis.
The nature of experiment [16]: Iron chelating activity assessed as pFe3+ by measuring fluorescence intensity of the iron-CP691 complex at 2 uM after 1 month incubation in absence of light using CP691 as fluorescent probe by fluorescence assay relative to CP691 alone.

Turning to `CCCCn1ccc(=O)c(CNC(=O)CCC(CCC(=O)NCc2c(O)c(=O)ccn2CCCC)(CCC(=O)NCc2c(O)c(=O)ccn2CCCC)NC(=O)CCNC(=O)CCC(CCC(=O)NCCC(=O)NC(CCC(=O)NCc2c(O)n(CCCC)ccc2=O)(CCC(=O)NCc2c(O)c(=O)ccn2CCCC)CCC(=O)NCc2c(O)c(=O)ccn2CCCC)(CCC(=O)NCCC(=O)NC(CCC(=O)NCc2c(O)n(CCCC)ccc2=O)(CCC(=O)NCc2c(O)c(=O)ccn2CCCC)CCC(=O)NCc2c(O)c(=O)ccn2CCCC)NC(=O)CCNC(=O)CCNC(=O)c2ccc(C(=O)NCCC(=O)NCCC(=O)NC(CCC(=O)NCCC(=O)NC(CCC(=O)NCc3c(O)n(CCCC)ccc3=O)(CCC(=O)NCc3c(O)c(=O)ccn3CCCC)CCC(=O)NCc3c(O)c(=O)ccn3CCCC)(CCC(=O)NCCC(=O)NC(CCC(=O)NCc3c(O)n(CCCC)ccc3=O)(CCC(=O)NCc3c(O)c(=O)ccn3CCCC)CCC(=O)NCc3c(O)c(=O)ccn3CCCC)CCC(=O)NCCC(=O)NC(CCC(=O)NCc3c(O)n(CCCC)ccc3=O)(CCC(=O)NCc3c(O)c(=O)ccn3CCCC)CCC(=O)NCc3c(O)c(=O)ccn3CCCC)cc2)c1O`, the result in experiment [1] was Active. For the same compound, in [2], the log(activity) came out at 30.3. For the same compound, the inhibition of growth at 100 µg/mL in [3] was 79.8%; in experiment [4], 87.9%; in [5] it was 86.9%; in experiment [6], 81.4%. Besides, the result in [7] was inactive.
Consider `CCCCn1ccc(=O)c(CNC(=O)CCC(CCC(=O)NCc2c(O)c(=O)ccn2CCCC)(CCC(=O)NCc2c(O)c(=O)ccn2CCCC)NC(=O)CCNC(=O)CCC(CCC(=O)NCCC(=O)NC(CCC(=O)NCc2c(O)n(CCCC)ccc2=O)(CCC(=O)NCc2c(O)c(=O)ccn2CCCC)CCC(=O)NCc2c(O)c(=O)ccn2CCCC)(CCC(=O)NCCC(=O)NC(CCC(=O)NCc2c(O)n(CCCC)ccc2=O)(CCC(=O)NCc2c(O)c(=O)ccn2CCCC)CCC(=O)NCc2c(O)c(=O)ccn2CCCC)NC(=O)CCNC(=O)CCNC(=O)c2cc(C(=O)NCCC(=O)NCCC(=O)NC(CCC(=O)NCCC(=O)NC(CCC(=O)NCc3c(O)n(CCCC)ccc3=O)(CCC(=O)NCc3c(O)c(=O)ccn3CCCC)CCC(=O)NCc3c(O)c(=O)ccn3CCCC)(CCC(=O)NCCC(=O)NC(CCC(=O)NCc3c(O)n(CCCC)ccc3=O)(CCC(=O)NCc3c(O)c(=O)ccn3CCCC)CCC(=O)NCc3c(O)c(=O)ccn3CCCC)CCC(=O)NCCC(=O)NC(CCC(=O)NCc3c(O)n(CCCC)ccc3=O)(CCC(=O)NCc3c(O)c(=O)ccn3CCCC)CCC(=O)NCc3c(O)c(=O)ccn3CCCC)cc(C(=O)NCCC(=O)NCCC(=O)NC(CCC(=O)NCCC(=O)NC(CCC(=O)NCc3c(O)n(CCCC)ccc3=O)(CCC(=O)NCc3c(O)c(=O)ccn3CCCC)CCC(=O)NCc3c(O)c(=O)ccn3CCCC)(CCC(=O)NCCC(=O)NC(CCC(=O)NCc3c(O)n(CCCC)ccc3=O)(CCC(=O)NCc3c(O)c(=O)ccn3CCCC)CCC(=O)NCc3c(O)c(=O)ccn3CCCC)CCC(=O)NCCC(=O)NC(CCC(=O)NCc3c(O)n(CCCC)ccc3=O)(CCC(=O)NCc3c(O)c(=O)ccn3CCCC)CCC(=O)NCc3c(O)c(=O)ccn3CCCC)c2)c1O`, for which the outcome in experiment [8] was Active. Moreover, the log(activity) in [9] turned out to be 29.8. Moreover, the growth inhibition (GI) in experiment [3] was 81.2%; in experiment [4] it was 69.9%; in [5] it was 64.5%; in experiment [6], 64.1%. Further, in [10], the result was inactive.
As for `CCCCn1ccc(=O)c(O)c1CNC(=O)CCC(CCC(=O)NCc1c(O)c(=O)ccn1CCCC)(CCC(=O)NCc1c(O)c(=O)ccn1CCCC)NC(=O)CCNC(=O)CN(CC(=O)NCCC(=O)NC(CCC(=O)NCc1c(O)c(=O)ccn1CCCC)(CCC(=O)NCc1c(O)c(=O)ccn1CCCC)CCC(=O)NCc1c(O)c(=O)ccn1CCCC)CC(=O)NCCC(=O)NC(CCC(=O)NCc1c(O)c(=O)ccn1CCCC)(CCC(=O)NCc1c(O)c(=O)ccn1CCCC)CCC(=O)NCc1c(O)c(=O)ccn1CCCC`, the result in experiment [11], in [12] and in [13] was Active. The outcome in [14] and in experiment [15] was inactive. Further, the log(activity) in experiment [16] came to 30.3. Also, the inhibition of growth at 100 µg/mL in experiment [3] came out at 71.7%; in experiment [4], 90.4%; in experiment [5], 90%; in [6] it was 84.8%.
`O=C(CCC(CCC(=O)NCc1c(O)c(=O)ccn1CCO)(CCC(=O)NCc1c(O)c(=O)ccn1CCO)NC(=O)CCNC(=O)CN(CC(=O)NCCC(=O)NC(CCC(=O)NCc1c(O)c(=O)ccn1CCO)(CCC(=O)NCc1c(O)c(=O)ccn1CCO)CCC(=O)NCc1c(O)c(=O)ccn1CCO)CC(=O)NCCC(=O)NC(CCC(=O)NCc1c(O)c(=O)ccn1CCO)(CCC(=O)NCc1c(O)c(=O)ccn1CCO)CCC(=O)NCc1c(O)c(=O)ccn1CCO)NCc1c(O)c(=O)ccn1CCO`: the outcome in experiment [12] and in experiment [13] was Active. The outcome in experiment [14] and in experiment [15] was inactive. In experiment [16], the log(activity) was determined as 30. In addition, the growth inhibition (GI) is 99.7% in [3], 85.3% in experiment [4], 81.7% in experiment [5] and 95% in experiment [6].
For the compound `Cc1c(O)c(=O)ccn1C` [DEFERIPRONE], the inhibition of growth at 100 µg/mL in experiment [3] came to 89.1%; in [4] it was 79.5%; in [5], 74.8%; in [6], 77.4%.
